Target: human full-length MKNK1 (Homo sapiens (Human), UniProt Q9BUB5, T344D)
Experiment: MKNK1 kinase high ATP assay (TR-FRET)
Assay type: biochemical
Settings: 2 mM ATP, 15 min preincubation with enzyme, GST-MKNK1 (T344D)
How it was run: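 GST-tagged full-length human MKNK1 (1-424, T344D, baculovirus-expressed) preincubated 15 min at 22 °C with compound, then reacted 30 min at 22 °C with 2 mM ATP and 0.06 μM biotinylated peptide (final) in HEPES pH 7.5. Phospho-substrate by TR-FRET (665/622 nm ratio), normalised to no-inhibitor and no-enzyme controls.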

human full-length MKNK1, sequence (Q9BUB5 other isoform, or with tags, fused parts or gaps T344D): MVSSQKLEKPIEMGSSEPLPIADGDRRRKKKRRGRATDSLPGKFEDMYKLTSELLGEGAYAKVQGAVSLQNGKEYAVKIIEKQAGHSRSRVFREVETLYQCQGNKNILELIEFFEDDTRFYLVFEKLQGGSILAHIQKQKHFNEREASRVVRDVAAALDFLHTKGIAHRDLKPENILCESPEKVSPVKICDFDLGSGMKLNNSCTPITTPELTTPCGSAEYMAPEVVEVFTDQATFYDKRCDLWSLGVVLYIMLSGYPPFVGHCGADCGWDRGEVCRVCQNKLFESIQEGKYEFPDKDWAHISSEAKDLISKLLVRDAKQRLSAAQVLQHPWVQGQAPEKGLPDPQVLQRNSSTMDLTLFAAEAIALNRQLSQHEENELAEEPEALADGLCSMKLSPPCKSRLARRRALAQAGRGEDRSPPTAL

| SMILES | IC50 |
| --- | --- |
| Cc1cc(Nc2ncnc3[nH]cnc23)c(=O)n2c1C(=O)NC21CCCC1 [Example 67, 8′-methyl-6′-(9H-purin-6-ylamino)-2′H-spiro[cyclopentane-1,3′-imidazo[1,5-a]pyridine]-1′,5′-dione] | 0.7 nM |
| Cc1cc(Nc2ncnc3sccc23)c(=O)n2c1C(=O)NC2(C)C [Example 135, 3,3,8-Trimethyl-6-(thieno[2,3-d]pyrimidin-4-ylamino)-2,3-dihydroimidazo[1,5-a]pyridine-1,5-dione] | 19.8 nM |
| Cc1cc(Nc2ncnc3[nH]ccc23)c(=O)n2c1C(=O)NC2(C)C [Example 132, 3,3,8-Trimethyl-6-(7H-pyrrolo[2,3-d]pyrimidin-4-ylamino)-2,3-dihydroimidazo[1,5-a]pyridine-1,5-dione] | 0.7 nM |
| Cc1cc(Nc2ncnc3ccc(Cl)cc23)c(=O)n2c1C(=O)NC21CCC1 [Example 167, 6′-[(6-Chloroquinazolin-4-yl)amino]-8′-methyl-2′H-spiro[cyclobutane-1,3′-imidazo[1,5-a]pyridine]-1′,5′-dione] | 5.7 nM |
| Cc1cc(Nc2ncnc3[nH]cnc23)c(=O)n2c1C(=O)NC2(C)C [Example 134, 3,3,8-Trimethyl-6-(9H-purin-6-ylamino)-2,3-dihydroimidazo[1,5-a]pyridine-1,5-dione] | 5.8 nM |
| COc1ccc2ncnc(Nc3cc(C)c4n(c3=O)C3(CCCCC3)NC4=O)c2c1 [Example 117, 6′-[(6-Methoxyquinazolin-4-yl)amino]-8′-methyl-2′H-spiro[cyclohexane-1,3′-imidazo[1,5-a]pyridine]-1′,5′-dione] | 12.5 nM |
| Cc1cc(Nc2ncnc3sc(C(=O)O)c(C)c23)c(=O)n2c1C(=O)NC2(C)C [Example 145, 5-Methyl-4-[(3,3,8-trimethyl-1,5-dioxo-1,2,3,5-tetrahydroimidazo[1,5-a]pyridin-6-yl)amino]thieno[2,3-d]pyrimidine-6-carboxylic acid] | 115 nM |
| Cc1cc(Nc2ncnc3sc(C(=O)N4CC(N)C4)cc23)c(=O)n2c1C(=O)NC21CCCC1 [Example 74, 6′-({6-[(3-Aminoazetidin-1-yl)carbonyl]thieno[2,3-d]pyrimidin-4-yl}amino)-8′-methyl-2′H-spiro[cyclopentane-1,3′-imidazo[1,5-a]pyridine]-1′,5′-dione] | 1.5 nM |
| Cc1cc(Nc2ncnc3sc(C(=O)N4CCN(C)CC4)c(C)c23)c(=O)n2c1C(=O)NC21CCCCC1 [Example 19, 8′-methyl-6′-({5-methyl-6-[(4-methylpiperazin-1-yl)carbonyl]thieno[2,3-d]pyrimidin-4-yl}amino)-2′H-spiro[cyclohexane-1,3′-imidazo[1,5-a]pyridine]-1′,5′-dione] | 34.2 nM |
| Cc1cc(Nc2ccnc3[nH]cnc23)c(=O)n2c1C(=O)NC21CCCCC1 [Example 57, 6′-(3H-Imidazo[4,5-b]pyridin-7-ylamino)-8′-methyl-2′H-spiro[cyclohexane-1,3′-imidazo[1,5-a]pyridine]-1′,5′-dione] | 6.2 nM |
| Cc1cc(Nc2ncnc3sccc23)c(=O)n2c1C(=O)NC21CCC(F)(F)CC1 [Example 89, 4,4-Difluoro-8′-methyl-6′-(thieno[2,3-d]pyrimidin-4-ylamino)-2′H-spiro[cyclohexane-1,3′-imidazo[1,5-a]pyridine]-1′,5′-dione] | 12.8 nM |
| Cc1cc(Nc2ncnc(NC(=O)C3CC3)n2)c(=O)n2c1C(=O)NC21CCCC1 [Example 53, N-{4-[(8′-Methyl-1′,5′-dioxo-1′,5′-dihydro-2′H-spiro[cyclopentane-1,3′-imidazo[1,5-a]pyridin]-6′-yl)amino]-1,3,5-triazin-2-yl}cyclopropanecarboxamide] | 2.4 nM |
| Cc1cc(Nc2ncnc3cccc(C)c23)c(=O)n2c1C(=O)NC21CCC1 [Example 170, 8′-methyl-6′-[(5-methylquinazolin-4-yl)amino]-2′H-spiro[cyclobutane-1,3′-imidazo[1,5-a]pyridine]-1′,5′-dione] | 5.3 nM |
| Cc1cc(Nc2ncnc3c(C)cccc23)c(=O)n2c1C(=O)NC21CCCCC1 [Example 120, 8′-methyl-6′-[(8-methylquinazolin-4-yl)amino]-2′H-spiro[cyclohexane-1,3′-imidazo[1,5-a]pyridine]-1′,5′-dione] | > 20000 nM |
| Cc1cc(Nc2ncnc3c2ncn3CCO)c(=O)n2c1C(=O)NC21CCCCC1 [Example 44, 6′-{[9-(2-Hydroxyethyl)-9H-purin-6-yl]amino}-8′-methyl-2′H-spiro[cyclohexane-1,3′-imidazo[1,5-a]pyridine]-1′,5′-dione] | 465 nM |
| Cc1cc(Nc2ncnc3ccccc23)c(=O)n2c1C(=O)NC21CCCC1 [Example 187, 8′-methyl-6′-[(quinazolin-4-yl)amino]-2′H-spiro[cyclopentane-1,3′-imidazo[1,5-a]pyridine]-1′,5′-dione] | 7.3 nM |
| Cc1cc(Nc2ncnc3[nH]ccc23)c(=O)n2c1C(=O)NC21CCC(F)(F)CC1 [Example 90, 4,4-Difluoro-8′-methyl-6′-(7H-pyrrolo[2,3-d]pyrimidin-4-ylamino)-2′H-spiro[cyclohexane-1,3′-imidazo[1,5-a]pyridine]-1′,5′-dione] | 0.7 nM |
| Cc1cc(Nc2ncnc3sc(C(=O)N4CC(N)C4)cc23)c(=O)n2c1C(=O)NC21CCC1 [Example 154, 6′-({6-[(3-Aminoazetidin-1-yl)carbonyl]thieno[2,3-d]pyrimidin-4-yl}amino)-8′-methyl-2′H-spiro[cyclobutane-1,3′-imidazo[1,5-a]pyridine]-1′,5′-dione] | 5 nM |
| Cc1cc(Nc2ncnc3sc(C(=O)N4CC[C@@H](N(C)C)C4)cc23)c(=O)n2c1C(=O)NC21CCCCC1 [Example 29, 6′-[(6-{[(3R)-3-(Dimethylamino)pyrrolidin-1-yl]carbonyl}thieno[2,3-d]pyrimidin-4-yl)amino]-8′-methyl-2′H-spiro[cyclohexane-1,3′-imidazo[1,5-a]pyridine]-1′,5′-dione] | 2.9 nM |
| Cc1cc(Nc2ncnc3sc(C(=O)N4CC(C#N)C4)cc23)c(=O)n2c1C(=O)NC2(C)C [Example 141, 1-({4-[(3,3,8-Trimethyl-1,5-dioxo-1,2,3,5-tetrahydroimidazo[1,5-a]pyridin-6-yl)amino]thieno[2,3-d]pyrimidin-6-yl}carbonyl)azetidine-3-carbonitrile] | 24.2 nM |
| Cc1cc(Nc2ncnc3sccc23)c(=O)n2c1C(=O)NC21CCCC1 [Example 56, 8′-Methyl-6′-(thieno[2,3-d]pyrimidin-4-ylamino)-2′H-spiro[cyclopentane-1,3′-imidazo[1,5-a]pyridine]-1′,5′-dione] | 0.1 nM |
| Cc1cc(Nc2ncnc(NC(=O)C3CC3)n2)c(=O)n2c1C(=O)NC21CCCCC1 [Example 1, N-{4-[(8′-Methyl-1′,5′-dioxo-1′,5′-dihydro-2′H-spiro[cyclohexane-1,3′-imidazo[1,5-a]pyridin]-6′-yl)amino]-1,3,5-triazin-2-yl}cyclopropanecarboxamide] | 2.5 nM |
| Cc1cc(Nc2ncnc3sc(C(=O)N(C)CCN(C)C)cc23)c(=O)n2c1C(=O)NC21CCC(F)(F)CC1 [Example 82, 4-[(4,4-Difluoro-8′-methyl-1′,5′-dioxo-1′,5′-dihydro-2′H-spiro[cyclohexane-1,3′-imidazo[1,5-a]pyridin]-6′-yl)amino]-N-[2-(dimethylamino)ethyl]-N-methylthieno[2,3-d]pyrimidine-6-carboxamide] | 18.3 nM |

Source: patent US11311520B2, “Substituted dihydroimidazopyridinediones as MKNK1 and MKNK2 inhibitors” (Bayer Pharma Aktiengesellschaft, priority 2017, dated 2022)
